Experimental data reported in the NIST ThermoML archive (doi:10.1021/acs.jced.7b00201).

Test: xn = mol fraction of the nth substance listed
Conditions: 100 kPa, Liquid; for viscosity: Falling or rolling sphere viscometry; for mass density: Vibrating tube method

OCC1CC1 [cyclopropylmethanol] + CCCCC1CCCCC1
Conditions | mass density [kg/m3] | viscosity [mPa·s]
293.15 K, x1 = 0.1039 | 803.82 | 1.319
293.15 K, x1 = 0.2031 | 809.39 | 1.383
293.15 K, x1 = 0.3022 | 815.9 | 1.475
293.15 K, x1 = 0.3997 | 823.34 | 1.602
293.15 K, x1 = 0.4993 | 832.12 | 1.778
293.15 K, x1 = 0.5994 | 842.55 | 2.006
293.15 K, x1 = 0.7 | 855.1 | 2.299
293.15 K, x1 = 0.797 | 869.68 | 2.67
293.15 K, x1 = 0.9004 | 889.05 | 3.23
293.15 K, x1 = 1 | 912.99 | 4.029
298.15 K, x1 = 0.1039 | 800.02 | 1.212
298.15 K, x1 = 0.2031 | 805.52 | 1.265
298.15 K, x1 = 0.3022 | 812 | 1.343
298.15 K, x1 = 0.3997 | 819.39 | 1.451
298.15 K, x1 = 0.4993 | 828.15 | 1.601
298.15 K, x1 = 0.5994 | 838.56 | 1.79
298.15 K, x1 = 0.7 | 851.09 | 2.038
298.15 K, x1 = 0.797 | 865.66 | 2.355
298.15 K, x1 = 0.9004 | 885.02 | 2.821
298.15 K, x1 = 1 | 908.94 | 3.485
303.15 K, x1 = 0.1039 | 796.16 | 1.117
303.15 K, x1 = 0.2031 | 801.61 | 1.162
303.15 K, x1 = 0.3022 | 808.04 | 1.228
303.15 K, x1 = 0.3997 | 815.4 | 1.319
303.15 K, x1 = 0.4993 | 824.14 | 1.448
303.15 K, x1 = 0.5994 | 834.52 | 1.607
303.15 K, x1 = 0.7 | 847.04 | 1.817
303.15 K, x1 = 0.797 | 861.6 | 2.084
303.15 K, x1 = 0.9004 | 880.95 | 2.48
303.15 K, x1 = 1 | 904.85 | 3.037
308.15 K, x1 = 0.1039 | 792.28 | 1.034
308.15 K, x1 = 0.2031 | 797.68 | 1.072
308.15 K, x1 = 0.3022 | 804.06 | 1.128
308.15 K, x1 = 0.3997 | 811.39 | 1.205
308.15 K, x1 = 0.4993 | 820.09 | 1.315
308.15 K, x1 = 0.5994 | 830.45 | 1.45
308.15 K, x1 = 0.7 | 842.95 | 1.628
308.15 K, x1 = 0.797 | 857.5 | 1.855
308.15 K, x1 = 0.9004 | 876.84 | 2.192
308.15 K, x1 = 1 | 900.74 | 2.661
313.15 K, x1 = 0.1039 | 788.38 | 0.96
313.15 K, x1 = 0.2031 | 793.72 | 0.984
313.15 K, x1 = 0.3022 | 800.06 | 1.04
313.15 K, x1 = 0.3997 | 807.34 | 1.106
313.15 K, x1 = 0.4993 | 816.02 | 1.198
313.15 K, x1 = 0.5994 | 826.34 | 1.314
313.15 K, x1 = 0.7 | 838.82 | 1.466
313.15 K, x1 = 0.797 | 853.35 | 1.659
313.15 K, x1 = 0.9004 | 872.69 | 1.947
313.15 K, x1 = 1 | 896.58 | 2.344
318.15 K, x1 = 0.1039 | – | 0.895
318.15 K, x1 = 0.2031 | – | 0.919
318.15 K, x1 = 0.3022 | – | 0.963
318.15 K, x1 = 0.3997 | – | 1.019
318.15 K, x1 = 0.4993 | – | 1.098
318.15 K, x1 = 0.5994 | – | 1.197
318.15 K, x1 = 0.7 | – | 1.327
318.15 K, x1 = 0.797 | – | 1.491
318.15 K, x1 = 0.9004 | – | 1.735
318.15 K, x1 = 1 | – | 2.074
